# Values of other authors in article PMC8036510, “The Inhibitory Effects of Plant Derivate Polyphenols on the Main Protease of SARS Coronavirus 2 and Their Structure–Activity Relationship” (Molecules, 2021).
# Key:
# M^pro [1] = test system: M^pro; design: method as in PMID 32963564; settings: 37 °C for 5 h, same substrate
# M^pro [2] = test system: M^pro; design: method as in PMID 33022015; settings: substrate MCA-AVLQSGFR-K(Dnp)-K-NH2
Structure (SMILES),IC50 on M^pro (M^pro [1]),IC50 (M^pro [2])
"O=C(O[C@@H]1Cc2c(O)cc(O)cc2O[C@@H]1c1cc(O)c(O)c(O)c1)c1cc(O)c(O)c(O)c1 [Epigallocatechin gallate (EGCG), Epigallocatechin gallate]",7.6 µg/mL,
O=C(OC[C@H]1O[C@@H](OC(=O)c2cc(O)c(O)c(OC(=O)c3cc(O)c(O)c(O)c3)c2)[C@H](OC(=O)c2cc(O)c(O)c(OC(=O)c3cc(O)c(O)c(O)c3)c2)[C@@H](OC(=O)c2cc(O)c(O)c(OC(=O)c3cc(O)c(O)c(O)c3)c2)[C@@H]1OC(=O)c1cc(O)c(O)c(OC(=O)c2cc(O)c(O)c(O)c2)c1)c1cc(O)c(O)c(OC(=O)c2cc(O)c(O)c(O)c2)c1 [Tannic acid],,2100 nM
